In patent US20120264684A1, “Glycosylated Form of Antigenic GLP-1 Analogue” (priority 2009, published 2012):
Entries after “also recorded” stand apart in the source; their conditions may differ.

Key:
albumin = albumin (Homo sapiens, UniProt P02768); conditions: background art; cited from earlier work
C57BL/6JJcl mice [1] = assay: Oral glucose tolerance test (OGTT) of oligosaccharide chain added exendin-4; format: in vivo; conditions: 0.9 nmol/10 ml PBS, 10 ml/kg i.p., 30 minutes before oral glucose 1 mg/g, fasted C57BL/6JJcl mice, GLP-1 at 9 nmol/10 ml
Description: (§1) Blood glucose suppressing activity by OGTT can be determined by measuring blood glucose elevation suppression when mice are force-fed sugar. For example, first, a test compound is administered to mice fasted overnight, and glucose solution is orally administered 30 minutes later. Blood glucose in mice will rise from the administration of glucose, reach maximum at about 30 minutes after administration, and then slowly decrease. The blood glucose suppressing action of the oligosaccharide, chain added antigenic GLP-1 analogue can be evaluated by measuring blood glucose 30 minutes after administration of glucose, and comparing it to blood glucose when non-oligosaccharide chain added antigenic GLP-1 analogue is administered. […] Orbital blood was collected before administration of glucose, as well as 30 minutes, 60 minutes, and 120 minutes after administration of glucose, and blood glucose was measured using Accu-Chek Aviva (Roche Diagnostics). Similarly, non-oligosaccharide chain added liraglutide was also administered to db/db mice, blood glucose was measured over time, and compared to the action of position 30 Cys-disialooligosaccharide chain added liraglutide.

[2] = system: BKS.Cg-+Leprdb/+Leprdb/Jc1 mice; assay: Blood glucose lowering action of oligosaccharide chain added exendin-4 using db/db mice; format: in vivo; conditions: for blood glucose lowering action in db/db mice: 9 mmol/10 mL PBS, 10 mL/kg i.p., blood glucose at 30, 60, 120, 240 minutes
Description: (§2) Blood glucose suppressing activity using db/db mice can be determined by measuring blood glucose after administration of a test compound to diabetic mice. Blood glucose after administration of the test compound is measured over time, and if for example, blood glucose 120 minutes after administration is lower than at the time of administration, blood glucose lowering action can be confirmed. For example, sustainability of blood glucose lowering action can also be determined by measuring blood glucose 300 minutes after administration.
A PBS solution of position 30 Cys-disialooligosaccharide chain added exendin-4 synthesized in Example 1 ([…]/10 mL) was intraperitoneally administered to BKS.Cg-+Leprdb/+Leprdb/Jc1 mice (10 weeks old, male) at an administration dosage of 10 mL/kg. Orbital blood was collected before administration of the compound, as well as 30 minutes, 60 minutes, 120 minutes, and 240 minutes later, and blood glucose was measured using Accu-Chek Aviva (Roche Diagnostics).
Blood glucose lowering action was compared with non-oligosaccharide chain added exendin-4 synthesized in Comparative Example 1.

balb/c mice = conditions: mouse, in vivo
Description: The effect of glycosylation on the antigenicity of exendin was verified by sensitizing mice with non-oligosaccharide chain added exendin-4 or position 30 Cys-disialooligosaccharide chain added exendin-4, and comparing blood anti-exendin-4 antibody concentrations.
As priming immunization, position 30 Cys-disialooligosaccharide chain added exendin-4 synthesized in Example 1 and non-oligosaccharide chain added exendin-4 (American Peptide Company) were mixed well with Complete Freund's adjuvant (Difco Laboratories) to make emulsions, and intraperitoneally administered to balb/c mice (female, 7 weeks old). […]
Plasma was collected from mice seven days after the boost immunization. The anti-exendin-4 antibody concentration in plasma was measured by Enzyme-Linked immunosorbent assay (ELISA) using commercially available anti-exendin-4 antibody (Antibodyshop) as the standard.
Fifty μg of non-oligosaccharide chain added exendin-4 was added to a 96-well ELISA plate, and incubated at 37° C. for 2 hours. […] The color development reaction was terminated by adding 20% SDS, and absorption at 405 nm was measured. The concentration of anti-exendin-4 antibody was determined using anti-exendin-4 monoclonal antibody as the standard.

C57BL/6JJcl mice [3] = assay: Oral glucose tolerance test (OGTT) of oligosaccharide chain added liraglutide; format: in vivo; conditions: 9 nmol/10 ml PBS, 10 ml/kg i.p., 30 minutes before oral glucose 1 mg/g, fasted C57BL/6JJcl mice
Description: as §1, with “Diagnostics).” for “Diagnostics). Similarly, non-oligosaccharide chain added liraglutide was also administered to db/db mice, blood glucose was measured over time, and compared to the action of position 30 Cys-disialooligosaccharide chain added liraglutide.”

[4] = system: BKS.Cg-+Leprdb/+Leprdb/Jc1 mice (db/db mice); assay: Blood glucose lowering action of oligosaccharide chain added liraglutide using db/db mice; format: in vivo; conditions: for blood glucose lowering action in db/db mice: 9 nmol/10 mL PBS, 10 mL/kg i.p., blood glucose at 30 to 720 minutes
Description: as §2, with “administration. […] Orbital blood was collected before administration of the compound, as well as 30 minutes, 60 minutes, 120 minutes, 240 minutes, 480 minutes, and 720 minutes later, and blood glucose was measured using Accu-Chek Aviva (Roche Diagnostics). Similarly, non-oligosaccharide chain added liraglutide was also administered to db/db mice, blood glucose was measured over time, and compared to the action of position 30 Cys-disialooligosaccharide chain added liraglutide.” for “administration.”

[5] = stated with the db/db mice test
[6] = listed as Oligosaccharide chain added exendin-4
[7] = listed as Oligosaccharide chain added liraglutide
[8] = listed as Position 30 Cys-disialooligosaccharide chain added liraglutide

Sequence of albumin (P02768 25-609): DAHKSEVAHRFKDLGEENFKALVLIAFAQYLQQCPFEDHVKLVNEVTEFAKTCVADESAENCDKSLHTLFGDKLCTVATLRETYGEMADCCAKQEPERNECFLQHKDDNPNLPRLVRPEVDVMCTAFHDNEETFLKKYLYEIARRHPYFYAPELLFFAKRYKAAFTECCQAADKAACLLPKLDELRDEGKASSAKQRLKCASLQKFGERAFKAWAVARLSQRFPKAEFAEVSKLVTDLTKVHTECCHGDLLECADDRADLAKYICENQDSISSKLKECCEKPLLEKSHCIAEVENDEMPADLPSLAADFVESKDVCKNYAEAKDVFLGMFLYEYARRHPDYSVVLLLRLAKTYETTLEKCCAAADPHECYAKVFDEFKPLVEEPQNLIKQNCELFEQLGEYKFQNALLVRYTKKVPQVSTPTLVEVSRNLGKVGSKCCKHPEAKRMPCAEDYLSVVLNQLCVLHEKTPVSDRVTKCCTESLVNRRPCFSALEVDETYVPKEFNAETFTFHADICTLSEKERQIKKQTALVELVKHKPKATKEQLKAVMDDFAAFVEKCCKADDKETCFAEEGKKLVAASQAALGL

**Q.** For `CCCCCCCCCCCCCCCC(=O)N[C@@H](CCC(=O)NCCCC[C@H](NC(=O)[C@H](C)NC(=O)[C@H](C)NC(=O)[C@H](CCC(N)=O)NC(=O)CNC(=O)[C@H](CCC(=O)O)NC(=O)[C@H](CC(C)C)NC(=O)[C@H](Cc1ccc(O)cc1)NC(=O)[C@H](CO)NC(=O)[C@H](CO)NC(=O)[C@@H](NC(=O)[C@H](CC(=O)O)NC(=O)[C@H](CO)NC(=O)[C@@H](NC(=O)[C@H](Cc1ccccc1)NC(=O)[C@@H](NC(=O)CNC(=O)[C@H](CCC(=O)O)NC(=O)[C@H](C)NC(=O)[C@@H](N)Cc1cnc[nH]1)[C@@H](C)O)[C@@H](C)O)C(C)C)C(=O)N[C@@H](CCC(=O)O)C(=O)N[C@@H](Cc1ccccc1)C(=O)N[C@H](C(=O)N[C@@H](C)C(=O)N[C@@H](Cc1c[nH]c2ccccc12)C(=O)N[C@@H](CC(C)C)C(=O)N[C@H](C(=O)N[C@@H](CCCNC(=N)N)C(=O)NCC(=O)N[C@@H](CCCNC(=N)N)C(=O)NCC(=O)O)C(C)C)[C@@H](C)CC)C(=O)O` [Liraglutide], which “administered amount that binds to albumin” value (albumin) is on record?
**A.** about 99%

**Q.** For Exendin-4, which “blood glucose elevation suppressive action (OGTT)” value (C57BL/6JJcl mice [1]) is on record?
**A.** blood glucose elevation suppressive action higher than vehicle (PBS only) and GLP-1

**Q.** And the “blood glucose lowering action in db/db mice” value (shortened to “blood glucose lowering action”) [2]?
**A.** strong blood glucose lowering action 30 minutes after administration

**Q.** And the “duration of blood glucose lowering effect in db/db mice” value ([2]; i.p., 10 mL/kg, last sampling 240 minutes)?
**A.** 240 min

**Q.** And the blood stability [2, 5]?
**A.** high blood stability

**Q.** Which “plasma anti-exendin-4 antibody concentration / antibody titer compared to non-oligosaccharide chain added exendin-4” value (balb/c mice) does the source give for “Position 30 Cys-DisialoOligosaccharide Chain Added Exendin-4” here?
**A.** about one-quarter

**Q.** What about the “blood glucose elevation suppressive action (OGTT)” value (C57BL/6JJcl mice [1]; [6]) of the same molecule?
**A.** blood glucose elevation suppressive action equal to non-oligosaccharide chain added exendin-4

**Q.** What about the “blood glucose lowering action” value [2, 6] of the same molecule?
**A.** string blood glucose lowering action equal to non-oligosaccharide chain added exendin-4

**Q.** And the “blood glucose lowering action” value ([2]; listed as Position 30 Cys-disialooligosaccharide chain added exendin-4)?
**A.** blood glucose lowering action and sustainability equal to non-oligosaccharide chain added exendin-4

**Q.** For “Position 30 Cys-DisialoOligosaccharide Chain Added Liraglutide”, which “blood glucose elevation suppressive action (OGTT)” value (C57BL/6JJcl mice [3]) is on record?
**A.** even higher blood glucose elevation suppressive action compared to non-oligosaccharide chain added liraglutide

**Q.** And the “blood glucose elevation suppressive action (OGTT)” value (C57BL/6JJcl mice [3]; [7])?
**A.** blood glucose elevation suppressive action even higher than non-oligosaccharide chain added liraglutide

**Q.** What about the “blood glucose elevation suppressive action (OGTT)” value (C57BL/6JJcl mice [3]; [8]) of the same molecule?
**A.** blood glucose elevation suppressive action higher than vehicle (PBS only) and GLP-1

**Q.** And the “blood glucose lowering action” value [4, 7]?
**A.** blood glucose lowering action and sustainability equal to non-oligosaccharide chain added liraglutide

**Q.** What about the “blood glucose lowering action” value [4, 8] of the same molecule?
**A.** strong blood glucose lowering action 30 minutes after administration; also recorded: blood glucose lowering action and sustainability equal to non-oligosaccharide, chain added liraglutide

**Q.** What about the “duration of blood glucose lowering effect in db/db mice” value ([4]; i.p., 10 mL/kg, last sampling 720 minutes) of the same molecule?
**A.** 12 h

**Q.** What about the blood stability [4, 5] of the same molecule?
**A.** high blood stability
